Measurements taken from patent US10405547B2, “Substituted cyclic amides as herbicides” (FMC Corporation, priority 2015, dated 2019).

Legend:
Format in all cases: in vivo
[1] = system: blackgrass (Alopecurus myosuroides); assay: Test A postemergence, blackgrass; conditions: visual injury, 0 to 100 scale (0 no effect, 100 complete control), approximately 10 days
Outline: (§1)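 Visual injury on a 0 to 100 scale, about 10 days post-spray in the greenhouse. Postemergence plants measured 2–10 cm at one to two leaves; preemergence pots received a directed soil spray. Soil was a loam–sand blend.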

[2] = system: ryegrass, Italian (Lolium multiflorum); assay: Test A preemergence, Italian ryegrass; conditions: 0 to 100 scale (0 no effect, 100 complete control)
Outline: as §1

[3] = system: wheat (Triticum aestivum); assay: Test A postemergence, wheat; conditions: visual injury, 0 to 100 scale (0 no effect, 100 complete control), approximately 10 days
Outline: as §1

[4] = system: ducksalad (Heteranthera limosa); assay: Test B flooded paddy test, ducksalad; conditions: applied to paddy water, visual rating after 13 to 15 days, scale 0 (no effect) to 100 (complete control)
Outline: (§2)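 Ratings were visual and made relative to untreated controls after 13 to 15 greenhouse days.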

[5] = system: foxtail, giant (Setaria faberii); assay: Test A preemergence, giant foxtail; conditions: 0 to 100 scale (0 no effect, 100 complete control)
Outline: as §1

kochia (Kochia scoparia) [6] = assay: Test A postemergence, kochia; conditions: visual injury, 0 to 100 scale (0 no effect, 100 complete control), approximately 10 days
Outline: as §1

[7] = system: pigweed (Amaranthus retroflexus); assay: Test A postemergence, pigweed; conditions: visual injury, 0 to 100 scale (0 no effect, 100 complete control), approximately 10 days
Outline: as §1

[8] = system: pigweed (Amaranthus retroflexus); assay: Test A preemergence, pigweed; conditions: 0 to 100 scale (0 no effect, 100 complete control)
Outline: as §1

rice (Oryza sativa) = assay: Test B flooded paddy test, rice; conditions: applied to paddy water, visual rating after 13 to 15 days, scale 0 (no effect) to 100 (complete control)
Outline: as §2

corn (Zea mays) = assay: Test A postemergence, corn; conditions: visual injury, 0 to 100 scale (0 no effect, 100 complete control), approximately 10 days
Outline: as §1

[9] = system: sedge, umbrella (small-flower umbrella sedge, Cyperus difformis); assay: Test B flooded paddy test, umbrella sedge; conditions: applied to paddy water, visual rating after 13 to 15 days, scale 0 (no effect) to 100 (complete control)
Outline: as §2

[10] = system: ragweed (common ragweed, Ambrosia elatior); assay: Test A postemergence, ragweed; conditions: visual injury, 0 to 100 scale (0 no effect, 100 complete control), approximately 10 days
Outline: as §1

[11] = system: galium (catchweed bedstraw, Galium aparine); assay: Test A postemergence, galium; conditions: visual injury, 0 to 100 scale (0 no effect, 100 complete control), approximately 10 days
Outline: as §1

[12] = system: ragweed (common ragweed, Ambrosia elatior); assay: Test A preemergence, ragweed; conditions: 0 to 100 scale (0 no effect, 100 complete control)
Outline: as §1

kochia (Kochia scoparia) [13] = assay: Test A preemergence, kochia; conditions: 0 to 100 scale (0 no effect, 100 complete control)
Outline: as §1

[14] = system: ryegrass, Italian (Lolium multiflorum); assay: Test A postemergence, Italian ryegrass; conditions: visual injury, 0 to 100 scale (0 no effect, 100 complete control), approximately 10 days
Outline: as §1

[15] = system: foxtail, giant (Setaria faberii); assay: Test A postemergence, giant foxtail; conditions: visual injury, 0 to 100 scale (0 no effect, 100 complete control), approximately 10 days
Outline: as §1

[16] = system: barnyardgrass (Echinochloa crus-galli); assay: Test A preemergence, barnyardgrass; conditions: 0 to 100 scale (0 no effect, 100 complete control)
Outline: as §1

[17] = system: barnyardgrass (Echinochloa crus-galli); assay: Test B flooded paddy test, barnyardgrass; conditions: applied to paddy water, visual rating after 13 to 15 days, scale 0 (no effect) to 100 (complete control)
Outline: as §2

[18] = system: barnyardgrass (Echinochloa crus-galli); assay: Test A postemergence, barnyardgrass; conditions: visual injury, 0 to 100 scale (0 no effect, 100 complete control), approximately 10 days
Outline: as §1

Structure (SMILES)	Plant response rating, Blackgrass ([1]; 125 g ai/ha)	Plant response rating, Blackgrass ([1]; 500 g ai/ha)	Plant response rating, Ryegrass, Italian ([2]; 125 g ai/ha)	Plant response rating, Ryegrass, Italian ([2]; 500 g ai/ha)	Plant response rating, Wheat ([3]; 125 g ai/ha)	Plant response rating, Wheat ([3]; 500 g ai/ha)	Plant response rating, Foxtail, Giant ([5]; 125 g ai/ha)	Plant response rating, Foxtail, Giant ([5]; 500 g ai/ha)	Plant response rating, Kochia (kochia (Kochia scoparia) [6]; 125 g ai/ha)	Plant response rating, Kochia (kochia (Kochia scoparia) [6]; 500 g ai/ha)	Plant response rating, Pigweed ([7]; 125 g ai/ha)	Plant response rating, Pigweed ([7]; 500 g ai/ha)	Plant response rating, Pigweed ([8]; 125 g ai/ha)	Plant response rating, Pigweed ([8]; 500 g ai/ha)	Plant response rating, Corn (corn (Zea mays); 125 g ai/ha)	Plant response rating, Corn (corn (Zea mays); 500 g ai/ha)	Plant response rating, Ragweed ([10]; 125 g ai/ha)	Plant response rating, Ragweed ([10]; 500 g ai/ha)	Plant response rating, Galium ([11]; 125 g ai/ha)	Plant response rating, Galium ([11]; 500 g ai/ha)	further results
CC1(COc2cccc(C3CNC(=O)C3C(=O)Nc3ccccc3C(F)(F)F)c2)COC1 (stereo not drawn) [Compound 15]	0	0	0	0	0	0	10	40	0	0	0	0	0	0	0	0	0	30	0	0	Plant response rating, Ducksalad (Flood) ([4]; 250 g ai/ha): 50; Plant response rating, Rice (Flood) (rice (Oryza sativa); 250 g ai/ha): 0; Plant response rating, Sedge, Umbrella (Flood) ([9]; 250 g ai/ha): 0; Plant response rating, Ragweed ([12]; 125 g ai/ha): 0; Plant response rating, Ragweed ([12]; 500 g ai/ha): 0; Plant response rating, Kochia (kochia (Kochia scoparia) [13]; 125 g ai/ha): 0; Plant response rating, Kochia (kochia (Kochia scoparia) [13]; 500 g ai/ha): 0; Plant response rating, Ryegrass, Italian ([14]; 125 g ai/ha): 0; Plant response rating, Ryegrass, Italian ([14]; 500 g ai/ha): 0; Plant response rating, Foxtail, Giant ([15]; 125 g ai/ha): 10; Plant response rating, Foxtail, Giant ([15]; 500 g ai/ha): 20; Plant response rating, Barnyardgrass ([16]; 125 g ai/ha): 0; Plant response rating, Barnyardgrass ([16]; 500 g ai/ha): 60; Plant response rating, Barnyardgrass (Flood) ([17]; 250 g ai/ha): 0; Plant response rating, Barnyardgrass ([18]; 125 g ai/ha): 0; Plant response rating, Barnyardgrass ([18]; 500 g ai/ha): 0
CC1(COc2cccc(C3CNC(=O)C3C(=O)Nc3ccccc3Cl)c2)COC1 (stereo not drawn) [Compound 16]	0	0	0	0	0	0	10	70	0	0	0	0	0	0	0	0	0	0	0	0	Plant response rating, Ducksalad (Flood) ([4]; 250 g ai/ha): 30; Plant response rating, Rice (Flood) (rice (Oryza sativa); 250 g ai/ha): 0; Plant response rating, Sedge, Umbrella (Flood) ([9]; 250 g ai/ha): 30; Plant response rating, Ragweed ([12]; 125 g ai/ha): 0; Plant response rating, Ragweed ([12]; 500 g ai/ha): 0; Plant response rating, Kochia (kochia (Kochia scoparia) [13]; 125 g ai/ha): 0; Plant response rating, Kochia (kochia (Kochia scoparia) [13]; 500 g ai/ha): 0; Plant response rating, Ryegrass, Italian ([14]; 125 g ai/ha): 0; Plant response rating, Ryegrass, Italian ([14]; 500 g ai/ha): 0; Plant response rating, Foxtail, Giant ([15]; 125 g ai/ha): 0; Plant response rating, Foxtail, Giant ([15]; 500 g ai/ha): 20; Plant response rating, Barnyardgrass ([16]; 125 g ai/ha): 0; Plant response rating, Barnyardgrass ([16]; 500 g ai/ha): 60; Plant response rating, Barnyardgrass (Flood) ([17]; 250 g ai/ha): 0; Plant response rating, Barnyardgrass ([18]; 125 g ai/ha): 0; Plant response rating, Barnyardgrass ([18]; 500 g ai/ha): 50
O=C1NCC(c2cccc(Cn3ccc(C(F)(F)F)n3)c2)C1C(=O)Nc1ccc(F)c(F)c1F (stereo not drawn) [Compound 22]	0	0	0	0	0	0	40	80	0	0	0	0	0	0	0	0	0	0	0	0	Plant response rating, Ducksalad (Flood) ([4]; 500 g ai/ha): 0; Plant response rating, Rice (Flood) (rice (Oryza sativa); 500 g ai/ha): 0; Plant response rating, Sedge, Umbrella (Flood) ([9]; 500 g ai/ha): 0; Plant response rating, Ragweed ([12]; 125 g ai/ha): 0; Plant response rating, Ragweed ([12]; 500 g ai/ha): 0; Plant response rating, Kochia (kochia (Kochia scoparia) [13]; 125 g ai/ha): 0; Plant response rating, Kochia (kochia (Kochia scoparia) [13]; 500 g ai/ha): 0; Plant response rating, Ryegrass, Italian ([14]; 125 g ai/ha): 0; Plant response rating, Ryegrass, Italian ([14]; 500 g ai/ha): 0; Plant response rating, Foxtail, Giant ([15]; 125 g ai/ha): 20; Plant response rating, Foxtail, Giant ([15]; 500 g ai/ha): 60; Plant response rating, Barnyardgrass ([16]; 125 g ai/ha): 0; Plant response rating, Barnyardgrass ([16]; 500 g ai/ha): 30; Plant response rating, Barnyardgrass (Flood) ([17]; 500 g ai/ha): 30; Plant response rating, Barnyardgrass ([18]; 125 g ai/ha): 40; Plant response rating, Barnyardgrass ([18]; 500 g ai/ha): 60
